Results as given in patent publication US11787781B2, “Inhibiting ataxia telangiectasia and RAD3-related protein (ATR)” (Celator Pharmaceuticals, Inc., priority 2016, dated 2023).
Like-named read-outs stand apart in the source and are kept apart here.

What was measured:
ATM(h) = ATM(h) (Homo sapiens (Human), UniProt Q13315); test: ATM activity, […] KINASEPROFILER; assay type: biochemical; conditions: estimated IC50
Excerpt: Estimated IC50 values are as follows (obtained using […] KINASEPROFILER): […]

GSK3b = GSK3b (Homo sapiens (Human), UniProt P49841); test: Broad kinase panel screening; assay type: biochemical
Excerpt: (§1) Example 16: Broad Kinase Panel Screening (359)
(§2) Major hits out of 359 were: ALK, ARK, c-MER, CLK1, DYRK, GSK3a, GSK3b, FLT2, FLT3, MLK1, SIK2, TNIK, and YSK4.

CLK4 = CLK4 (Homo sapiens (Human), UniProt Q9HAZ1); test: Broad kinase panel screening; assay type: biochemical
Excerpt: as §1, §2

DYRK2 = DYRK2 (Homo sapiens (Human), UniProt Q92630); test: Broad kinase panel screening; assay type: biochemical
Excerpt: as §1, §2

ALK1/ACVRL1 = ALK1/ACVRL1 (Homo sapiens (Human), UniProt P37023); test: Broad kinase panel screening; assay type: biochemical
Excerpt: as §1, §2

MLK1/MAP3K9 = MLK1/MAP3K9 (Homo sapiens (Human), UniProt P80192); test: Broad kinase panel screening; assay type: biochemical
Excerpt: as §1, §2

YSK4/MAP3K19 = YSK4/MAP3K19 (Homo sapiens (Human), UniProt Q56UN5); test: Broad kinase panel screening; assay type: biochemical
Excerpt: as §1, §2

CLK1 = CLK1 (Homo sapiens (Human), UniProt P49759); test: Broad kinase panel screening; assay type: biochemical
Excerpt: as §1, §2

MLK2/MAP3K10 = MLK2/MAP3K10 (Homo sapiens (Human), UniProt Q02779); test: Broad kinase panel screening; assay type: biochemical
Excerpt: as §1, §2

PKD2/PRKD2 = PKD2/PRKD2 (Homo sapiens (Human), UniProt Q9BZL6); test: Broad kinase panel screening; assay type: biochemical
Excerpt: as §1, §2

FLT4/VEGFR3 = FLT4/VEGFR3 (Homo sapiens (Human), UniProt P35916); test: Broad kinase panel screening; assay type: biochemical
Excerpt: as §1, §2

GSK3a = GSK3a (Homo sapiens (Human), UniProt P49840); test: Broad kinase panel screening; assay type: biochemical
Sequence of GSK3a (P49840 whole entry, species assumed): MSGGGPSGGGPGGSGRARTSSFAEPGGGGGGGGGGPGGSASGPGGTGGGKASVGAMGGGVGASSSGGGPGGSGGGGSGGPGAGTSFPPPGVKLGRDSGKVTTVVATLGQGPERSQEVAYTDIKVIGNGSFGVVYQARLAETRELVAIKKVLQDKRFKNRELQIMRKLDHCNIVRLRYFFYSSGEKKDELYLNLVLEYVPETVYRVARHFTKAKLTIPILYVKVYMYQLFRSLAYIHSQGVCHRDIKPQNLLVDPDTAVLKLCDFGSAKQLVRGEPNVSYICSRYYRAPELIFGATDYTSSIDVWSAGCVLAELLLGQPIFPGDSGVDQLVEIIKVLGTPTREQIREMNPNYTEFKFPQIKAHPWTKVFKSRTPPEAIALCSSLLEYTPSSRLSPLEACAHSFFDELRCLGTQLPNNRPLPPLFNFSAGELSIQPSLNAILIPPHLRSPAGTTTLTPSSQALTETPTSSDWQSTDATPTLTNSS
Excerpt: as §1, §2

PIM1 = PIM1 (Homo sapiens (Human), UniProt P11309); test: Broad kinase panel screening; assay type: biochemical
Sequence of PIM1 (P11309 whole entry, species assumed): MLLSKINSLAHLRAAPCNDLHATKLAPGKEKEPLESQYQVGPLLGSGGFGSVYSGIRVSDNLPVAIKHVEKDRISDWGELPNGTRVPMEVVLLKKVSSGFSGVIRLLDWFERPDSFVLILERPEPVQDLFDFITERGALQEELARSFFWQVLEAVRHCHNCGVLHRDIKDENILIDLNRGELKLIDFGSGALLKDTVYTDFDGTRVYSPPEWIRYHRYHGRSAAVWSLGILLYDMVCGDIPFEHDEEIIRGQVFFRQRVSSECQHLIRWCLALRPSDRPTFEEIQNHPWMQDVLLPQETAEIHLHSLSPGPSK
Excerpt: as §1, §2

PKCmu/PRKD1 = PKCmu/PRKD1 (Homo sapiens (Human), UniProt Q15139); test: Broad kinase panel screening; assay type: biochemical
Excerpt: as §1, §2

TNIK = TNIK (Homo sapiens (Human), UniProt Q9UKE5); test: Broad kinase panel screening; assay type: biochemical
Excerpt: as §1, §2

MLK3/MAP3K11 = MLK3/MAP3K11 (Homo sapiens (Human), UniProt Q16584); test: Broad kinase panel screening; assay type: biochemical
Sequence of MLK3/MAP3K11 (Q16584 whole entry): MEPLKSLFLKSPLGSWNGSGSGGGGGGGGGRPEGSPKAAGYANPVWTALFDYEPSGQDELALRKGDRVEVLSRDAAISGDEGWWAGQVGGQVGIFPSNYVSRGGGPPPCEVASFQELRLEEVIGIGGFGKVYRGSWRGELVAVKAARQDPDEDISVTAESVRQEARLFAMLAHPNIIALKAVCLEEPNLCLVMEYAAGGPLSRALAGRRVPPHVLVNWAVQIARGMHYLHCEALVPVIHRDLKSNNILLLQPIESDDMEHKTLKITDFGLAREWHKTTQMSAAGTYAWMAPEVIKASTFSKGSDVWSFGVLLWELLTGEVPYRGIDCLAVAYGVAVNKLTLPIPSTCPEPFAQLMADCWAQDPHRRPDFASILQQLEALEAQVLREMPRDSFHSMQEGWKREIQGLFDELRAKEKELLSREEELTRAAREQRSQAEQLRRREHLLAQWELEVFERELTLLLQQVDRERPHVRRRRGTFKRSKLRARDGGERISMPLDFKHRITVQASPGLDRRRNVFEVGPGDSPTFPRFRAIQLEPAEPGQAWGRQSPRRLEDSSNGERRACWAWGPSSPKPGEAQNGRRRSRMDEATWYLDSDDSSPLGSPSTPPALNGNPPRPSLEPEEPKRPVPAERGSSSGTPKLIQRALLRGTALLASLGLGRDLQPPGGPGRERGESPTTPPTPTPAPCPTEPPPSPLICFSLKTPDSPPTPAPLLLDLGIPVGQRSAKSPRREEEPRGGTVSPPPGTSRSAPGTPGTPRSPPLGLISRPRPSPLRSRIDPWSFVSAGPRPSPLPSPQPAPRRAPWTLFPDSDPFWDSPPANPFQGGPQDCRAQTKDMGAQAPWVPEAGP
Excerpt: as §1, §2

SIK2 = SIK2 (Homo sapiens (Human), UniProt Q9H0K1); test: Broad kinase panel screening; assay type: biochemical
Excerpt: as §1, §2

DDR1 = DDR1 (Homo sapiens (Human), UniProt Q08345); test: Broad kinase panel screening; assay type: biochemical
Excerpt: as §1, §2

ARK5/NUAK1 = ARK5/NUAK1 (Homo sapiens (Human), UniProt O60285); test: Broad kinase panel screening; assay type: biochemical
Excerpt: as §1, §2

RET = RET (Homo sapiens (Human), UniProt P07949); test: Broad kinase panel screening; assay type: biochemical
Excerpt: as §1, §2

ALK2/ACVR1 = ALK2/ACVR1 (Homo sapiens (Human), UniProt Q04771); test: Broad kinase panel screening; assay type: biochemical
Excerpt: as §1, §2

SUM149 cells = test: Cell cycle stage profile, SUM149 cells; assay type: cell-based; conditions: 24 hours after addition of SN38 and ATR inhibitor
U2OS cells = test: Cell death and growth assay, U2OS cells; assay type: cell-based; conditions: set concentrations, in combination with Gemcitabine
Description: U20S and all other cells were grown in (RPMI) supplemented with 10% fetal bovine serum (FBS) and antibiotics. Imaging and time-lapse compatible NucLight red cell lines were generated as recommend by Essen Bioscience Inc. using lentiviral particles, infection and puromycin selection protocols.
The results were compared back to a prediction of cell growth and death with the combination of the two compounds (FIG. 18A).
(§3) In all cases, relative cell proliferation is reduced with the combinations compared to the drugs alone (FIG. 21B-C).

ATR/ATRIP(h) = ATR/ATRIP(h) (Homo sapiens (Human), UniProt Q13535); test: Eurofins ATR/ATRIP HTRF assay, p53 Ser15 phosphorylation; assay type: biochemical; parameters: key to Top / Bottom: % of DMSO positive control activity; conditions: ATP 10 μM
Sequence of ATR/ATRIP(h) (Q13535 whole entry): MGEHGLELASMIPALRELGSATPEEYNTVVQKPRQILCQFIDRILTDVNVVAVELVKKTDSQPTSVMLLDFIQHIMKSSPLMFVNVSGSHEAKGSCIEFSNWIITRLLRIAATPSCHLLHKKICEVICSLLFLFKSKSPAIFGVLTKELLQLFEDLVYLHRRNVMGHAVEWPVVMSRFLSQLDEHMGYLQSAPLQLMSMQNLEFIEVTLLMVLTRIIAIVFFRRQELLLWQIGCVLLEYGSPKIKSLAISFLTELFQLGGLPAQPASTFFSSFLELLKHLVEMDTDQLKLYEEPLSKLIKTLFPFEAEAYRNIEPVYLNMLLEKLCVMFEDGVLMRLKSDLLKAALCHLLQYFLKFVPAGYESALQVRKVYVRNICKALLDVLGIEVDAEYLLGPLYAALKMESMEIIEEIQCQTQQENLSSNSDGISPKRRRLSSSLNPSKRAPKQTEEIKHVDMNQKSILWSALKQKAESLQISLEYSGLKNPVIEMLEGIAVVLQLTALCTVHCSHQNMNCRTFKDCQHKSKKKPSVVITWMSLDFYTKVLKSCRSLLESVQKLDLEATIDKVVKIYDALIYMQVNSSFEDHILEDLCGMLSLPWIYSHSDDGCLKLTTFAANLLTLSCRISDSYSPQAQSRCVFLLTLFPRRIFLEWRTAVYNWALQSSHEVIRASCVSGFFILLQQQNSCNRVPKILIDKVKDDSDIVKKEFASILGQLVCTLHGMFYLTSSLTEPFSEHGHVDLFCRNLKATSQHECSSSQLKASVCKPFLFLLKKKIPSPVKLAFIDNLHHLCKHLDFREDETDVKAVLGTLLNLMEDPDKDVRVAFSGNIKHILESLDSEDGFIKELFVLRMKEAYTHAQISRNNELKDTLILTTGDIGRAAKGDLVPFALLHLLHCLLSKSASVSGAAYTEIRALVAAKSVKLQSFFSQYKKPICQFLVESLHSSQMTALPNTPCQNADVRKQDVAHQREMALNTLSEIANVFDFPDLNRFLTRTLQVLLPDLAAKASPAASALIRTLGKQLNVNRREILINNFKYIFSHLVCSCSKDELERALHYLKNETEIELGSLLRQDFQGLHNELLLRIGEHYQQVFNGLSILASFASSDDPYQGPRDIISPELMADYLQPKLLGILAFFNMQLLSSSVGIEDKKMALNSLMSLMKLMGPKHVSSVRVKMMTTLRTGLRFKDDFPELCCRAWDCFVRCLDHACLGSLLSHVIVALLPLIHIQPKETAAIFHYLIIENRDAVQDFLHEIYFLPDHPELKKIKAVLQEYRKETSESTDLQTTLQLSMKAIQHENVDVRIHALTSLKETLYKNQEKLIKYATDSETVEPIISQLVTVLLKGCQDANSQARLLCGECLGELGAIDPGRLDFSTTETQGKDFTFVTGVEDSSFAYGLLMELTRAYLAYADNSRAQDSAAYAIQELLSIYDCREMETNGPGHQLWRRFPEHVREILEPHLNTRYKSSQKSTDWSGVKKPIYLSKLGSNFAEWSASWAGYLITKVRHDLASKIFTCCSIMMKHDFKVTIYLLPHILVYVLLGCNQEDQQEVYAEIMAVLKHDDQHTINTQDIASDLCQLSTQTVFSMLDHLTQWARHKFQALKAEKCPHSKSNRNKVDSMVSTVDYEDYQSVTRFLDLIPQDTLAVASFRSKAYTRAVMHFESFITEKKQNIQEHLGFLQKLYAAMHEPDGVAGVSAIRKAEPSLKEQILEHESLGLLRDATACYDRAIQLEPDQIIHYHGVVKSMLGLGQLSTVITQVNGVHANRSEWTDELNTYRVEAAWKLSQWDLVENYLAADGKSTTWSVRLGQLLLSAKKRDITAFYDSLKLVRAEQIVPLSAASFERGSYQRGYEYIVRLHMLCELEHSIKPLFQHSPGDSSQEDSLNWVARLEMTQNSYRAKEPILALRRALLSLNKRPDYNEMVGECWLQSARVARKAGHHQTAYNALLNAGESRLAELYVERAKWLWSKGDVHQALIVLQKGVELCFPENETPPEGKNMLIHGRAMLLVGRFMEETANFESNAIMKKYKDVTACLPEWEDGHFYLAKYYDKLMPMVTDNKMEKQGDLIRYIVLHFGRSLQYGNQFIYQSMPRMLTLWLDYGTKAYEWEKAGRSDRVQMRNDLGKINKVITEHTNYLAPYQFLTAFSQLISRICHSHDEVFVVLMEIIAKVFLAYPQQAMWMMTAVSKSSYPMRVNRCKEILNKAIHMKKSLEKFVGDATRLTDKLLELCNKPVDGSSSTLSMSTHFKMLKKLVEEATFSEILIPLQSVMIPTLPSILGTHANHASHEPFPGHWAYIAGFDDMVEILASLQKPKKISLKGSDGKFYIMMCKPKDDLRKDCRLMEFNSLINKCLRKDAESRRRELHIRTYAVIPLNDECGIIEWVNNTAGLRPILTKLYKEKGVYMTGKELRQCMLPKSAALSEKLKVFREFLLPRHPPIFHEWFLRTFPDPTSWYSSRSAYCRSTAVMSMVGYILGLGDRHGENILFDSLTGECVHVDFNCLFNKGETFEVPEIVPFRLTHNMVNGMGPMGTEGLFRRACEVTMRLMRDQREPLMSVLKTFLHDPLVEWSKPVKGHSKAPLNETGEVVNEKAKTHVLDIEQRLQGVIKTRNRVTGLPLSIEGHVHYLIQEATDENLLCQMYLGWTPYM
Sequence of ATR/ATRIP(h) (Q8WXE1 whole entry partner): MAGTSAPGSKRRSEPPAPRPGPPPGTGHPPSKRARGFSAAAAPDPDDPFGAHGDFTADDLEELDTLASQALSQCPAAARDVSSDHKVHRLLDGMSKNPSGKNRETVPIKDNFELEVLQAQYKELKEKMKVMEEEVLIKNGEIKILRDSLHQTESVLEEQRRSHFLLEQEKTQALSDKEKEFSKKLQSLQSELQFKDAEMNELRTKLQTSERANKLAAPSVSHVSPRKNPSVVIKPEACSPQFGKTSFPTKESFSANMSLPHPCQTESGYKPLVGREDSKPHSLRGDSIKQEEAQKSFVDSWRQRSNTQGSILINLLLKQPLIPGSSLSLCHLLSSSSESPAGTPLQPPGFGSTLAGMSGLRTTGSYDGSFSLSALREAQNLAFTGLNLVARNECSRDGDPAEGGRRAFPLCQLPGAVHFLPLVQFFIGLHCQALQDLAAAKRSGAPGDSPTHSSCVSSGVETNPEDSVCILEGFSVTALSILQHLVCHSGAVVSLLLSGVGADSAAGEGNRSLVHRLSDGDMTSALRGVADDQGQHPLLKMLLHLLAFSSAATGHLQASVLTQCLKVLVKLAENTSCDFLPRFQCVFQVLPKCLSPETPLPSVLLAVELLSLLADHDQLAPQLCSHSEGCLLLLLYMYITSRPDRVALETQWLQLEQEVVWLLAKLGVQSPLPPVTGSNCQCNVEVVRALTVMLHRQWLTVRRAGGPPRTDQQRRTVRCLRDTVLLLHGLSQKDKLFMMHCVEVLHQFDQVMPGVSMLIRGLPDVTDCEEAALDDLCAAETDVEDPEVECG
Description: An EC50 determination was conducted for the supplied set of compounds against the kinase ATR/ATRIP(h), using a linear enzyme concentration in the Eurofins ATR/ATRIP HTRF assay using GST tagged full length p53 as the substrate.
ATR/ATRIP phosphorylation of p53 on Ser15 was measured via formation of an energy transfer complex consisting of a Europium-labelled anti-phospho Ser15 p53 antibody and an anti-GST-d2 antibody. All data points were performed in duplicate with DMSO controls and EDTA blanks.
ATR/ATRIP(h) was pre-diluted in 25 mM HEPES pH 8.0, 0.01% Brij-35, 1% Glycerol, 5 mM DTT, 1 mg/mL BSA and assayed in 25 mM HEPES pH 8.0, 0.01% Brij-35, 1% Glycerol, 10 mM MnCl2 using 30 nM GST, cMyc p53-(hu,FL) as the substrate. The reaction was initiated with the addition of ATP to a final concentration of 10 μM.
The individual replicates were expressed in terms of the % of the DMSO positive control activity. The mean activity (% control) of each inhibitor concentration was plotted against the inhibitor concentration, and EC50 values were determined using […] PRISM.
The data expressed as % control activity were plotted against inhibitor concentration, and fitted to a four parameter logistic using […] PRISM. Graphs for each compound are shown alongside the data in the accompanying Excel report.

H358 cells = test: Cell death and growth assay, H358 cells; assay type: cell-based; conditions: set concentrations, in combination with Gemcitabine
Excerpt: as §3

[1] = four parameter logistic fit of % control activity

## CN(C)CCC1CCN(CCS(=O)(=O)c2ccc(-c3cnc(N)c(C(=O)Nc4ccccc4)n3)cc2)CC1 [Compound 5, 3-amino-6-(4-((2-(4-(2-(dimethylamino)ethyl)piperidin-1-yl)ethyl)sulfonyl)phenyl)-N-phenylpyrazine-2-carboxamide]
ATM(h)
  IC50: > 10000 nM
GSK3b; read-out: IC50 nM
  IC50: 63 nM
GSK3b; read-out: IC50
  IC50: 63 nM
CLK4
  IC50: 88.6 nM
DYRK2
  IC50: 71.8 nM
ALK1/ACVRL1
  IC50: 35.7 nM
MLK1/MAP3K9
  IC50: 11.3 nM
YSK4/MAP3K19
  IC50: 29.2 nM
CLK1
  IC50: 134 nM
MLK2/MAP3K10
  IC50: 9.58 nM
PKD2/PRKD2
  IC50: 157 nM
FLT4/VEGFR3
  IC50: 63.4 nM
GSK3a; read-out: IC50 nM
  IC50: 5.73 nM
GSK3a; read-out: IC50
  IC50: 5.73 nM
PIM1; read-out: IC50 nM
  IC50: 72.6 nM
PIM1; read-out: IC50
  IC50: 72.6 nM
PKCmu/PRKD1
  IC50: 134 nM
TNIK
  IC50: 110 nM
MLK3/MAP3K11; read-out: IC50 nM
  IC50: 5.9 nM
MLK3/MAP3K11; read-out: IC50
  IC50: 5.9 nM
SIK2
  IC50: 149 nM
DDR1
  IC50: 191 nM
ARK5/NUAK1
  IC50: 16.8 nM
RET
  IC50: 77.4 nM
ALK2/ACVR1
  IC50: 16.6 nM
SUM149 cells
  cell cycle stage profile vs controls: larger percentage of cells are arrested in G2 phase
U2OS cells
  relative cell proliferation vs the drugs alone: reduced
ATR/ATRIP(h)
  EC50: 234 nM
ATR/ATRIP(h); four parameter logistic fit
  Hill: −0.819
ATR/ATRIP(h); [1]
  Bottom: 1
  Top: 95
H358 cells
  relative cell proliferation vs the drugs alone: reduced
